According to patent publication US7923440B2, “Method of treating or preventing immune mediated disorders and pharmaceutical formulation for use therein” (Pantarhei Bioscience B.V., priority 2002, dated 2011):

Assays:
[1] = target: T1, rat uterine cytosol estrogen receptor (Rattus norvegicus, UniProt P06211); details: Martucci et al. 1976; cited from earlier work
T1 construct: rat uterine cytosol estrogen receptor; host or cells: rat uterus, cytosol
T1 sequence (P06211 1-600): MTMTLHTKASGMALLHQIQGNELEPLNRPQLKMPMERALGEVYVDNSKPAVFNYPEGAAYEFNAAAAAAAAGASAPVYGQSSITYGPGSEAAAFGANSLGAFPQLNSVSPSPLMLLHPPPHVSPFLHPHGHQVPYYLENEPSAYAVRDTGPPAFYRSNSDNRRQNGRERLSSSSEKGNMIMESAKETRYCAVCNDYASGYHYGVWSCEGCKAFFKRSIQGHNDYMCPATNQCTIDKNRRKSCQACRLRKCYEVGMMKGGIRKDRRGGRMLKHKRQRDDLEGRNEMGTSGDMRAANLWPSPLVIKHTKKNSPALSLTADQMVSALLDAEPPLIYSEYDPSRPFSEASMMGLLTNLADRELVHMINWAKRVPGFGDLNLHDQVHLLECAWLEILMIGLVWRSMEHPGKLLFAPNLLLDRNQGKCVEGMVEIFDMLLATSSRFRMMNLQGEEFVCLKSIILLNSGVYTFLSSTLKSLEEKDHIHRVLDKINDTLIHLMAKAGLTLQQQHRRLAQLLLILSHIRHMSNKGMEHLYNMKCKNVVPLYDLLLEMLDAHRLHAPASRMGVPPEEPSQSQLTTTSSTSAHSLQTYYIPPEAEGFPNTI

[2] = Single rising oral dose study in healthy postmenopausal volunteers; type: in vivo, human
Protocol: To determine the bioavailability and elimination half-life of estetrol after oral dosing in humans a single rising dosing study was performed in healthy postmenopausal volunteers. Volunteers (n=6) were randomly assigned to 0.1, 1 or 10 mg estetrol and blood samples (18 per volunteer) were obtained over a period of 72 hours.
After thawing the plasma samples, liquid-liquid extraction (hexane and diethyl ether) was employed to prepare the estetrol-containing plasma samples for HPLC analysis (Perkin Elmer 200) and tandem mass spectrometry using a PE Sciex 4000 tandem mass spectrometer and APCI interface. With each sample batch, a calibration curve with 6 calibrators was recorded. The calibration curve was calculated using linear regression (correlation coefficient >0.98), which permitted quantitation of plasma concentrations.

nonpregnant ewes = details: intravenously administered, Levine et al. 1984; cited from earlier work
[3] = tested on: human breast cancer cells (MCF-7); details: in vitro cell proliferation, Jozan et al. 1981; cited from earlier work
[4] = intravenous, two adult women, Fishman et al. 1970; cited from earlier work
[5] = tested on: estrogen receptors in the human endometrium; details: cited from earlier work
[6] = tested on: male DBA/1 mice with collagen induced arthritis (CIA); assay: Collagen induced arthritis (CIA) in male DBA/1 mice, oral treatment; type: in vivo, mouse; details: for average day of disease onset (arthritis): vehicle 25.4±0.64
Protocol: The ability of estetrol to alleviate the severity of immune mediated disorders and its possible side-effects were evaluated and compared with dexamethasone in mice developing collagen induced arthritis (CIA), which is another experimental system of autoimmune and chronic inflammatory disease, representing human arthritic diseases, particularly rheumatoid arthritis (RA).
Arthritis was induced in male DBA/1 mice using a two-step immunization protocol (Joosten et al., “Dual role of IL-12 in early and late stages of murine collagen type II arthritis”. J Immunol 1997; 159:4094-4102; Joosten et al., “IL-1β blockade prevents cartilage and bone destruction in murine type II collagen-induced arthritis, whereas TNFα blockade only ameliorates joint inflammation”. J Immunol 1999; 163:5049-55). This strain is highly susceptible to CIA induced with bovine type II collagen. On day 0, mice were immunized with bovine type II collagen (100 μg) emulsified in Freund's complete adjuvant (four subcutaneous injections in the back). On day 21, mice were boosted with an i.p. injection of 100 μg collagen type II diluted in PBS.
The effect of oral treatment with estetrol on collagen-induced arthritis was studied in a 6-week study design. From day 22 until the end of the study (day 42), the animals were treated once daily with vehicle (hydroxypropyl-beta-cyclodextrin in a 20% wt/vol solution in water) serving as negative control or four different dosages of estetrol (3 mg/kg, 1 mg/kg, 0.3 mg/kg and 0.1 mg/kg). Dexamethasone (1 mg/kg), was chosen as a positive control because it is a well studied corticosteroid that reduces swelling and inflammation and is used in a variety of disorders such as skin diseases (psoriasis, hives), allergic conditions, breathing problems, cancer, blood disorders (anemia), digestive problems, eye disorders and for the treatment of arthritis. Although effective as an anti-inflammatory agent, dexamethasone is also known to induce a number of side effects, which amongst others include in humans the induction of osteoporosis, reduced adrenal function, dizziness, nausea, indigestion, increased appetite, weight gain due to enhanced water retention, weakness and/or sleep disturbances. In addition, systemic dexamethasone treatment in rodents results in strong catabolic effects that can be easily observed as weight loss (Orzechowski et al. 2002, “Rats with a glucocorticoid-induced catabolic state show symptoms of oxidative stress and spleen atrophy: the effects of age and recovery”. J Vet Med A Physiol Pathol Clin Med; 49:256-63).
All groups used in the study consisted of 13 mice. During the study animals were weighed and monitored for clinical signs of arthritis. Scoring of disease severity (clinical arthritis score) was performed according to scoring system described by Joosten et al. 1997 (J. Immunol., 159:4094-4102) and Joosten et al. 1999 (J. Immunol., 163:5049-55).
Basic statistical analyses were performed as follows: The significance of differences between all treatment groups in the main clinical outcome parameters was tested using analysis of variance (ANOVA). Each significant ANOVA was followed by post hoc Tukey tests to determine the significance of the difference between each treatment group and the control group. Furthermore, linear regression analysis was used to study the dose-dependency of the effects of treatment with estetrol. All statistical analysis were performed using statistical software program SPSS 10.0 for Windows (SPSS Inc., Chicago, Ill., USA).

[7] = target: T2, rat uterine nuclear estrogen receptor (Rattus norvegicus, UniProt P06211); details: Martucci et al. 1976; cited from earlier work
T2 construct: rat uterine nuclear estrogen receptor; host or cells: rat uterus, nuclear fraction
T2 sequence (P06211 1-600): T1 sequence (P06211 1-600)

Compound: C[C@]12CC[C@@H]3c4ccc(O)cc4CC[C@H]3[C@@H]1[C@@H](O)[C@@H](O)[C@@H]2O [E4, 1,3,5 (10)-estratrien-3,15α,16α,17β-tetrol]
- relative binding affinity, of 17β-estradiol (100%) [1]: 0.5%
- half-life ([2]; female, human, plasma, po, human postmenopausal subjects, read-out: elimination half-life): > 15 h
- tolerability ([2]; oral single dose 0.1, 1, 10 mg, postmenopausal volunteers): Good tolerability
- AUC dose-linearity ([2]; oral single dose 0.1 to 10 mg, postmenopausal volunteers): good dose-linearity
- potency in uterine vasodilation relative to estriol and 17β-estradiol (nonpregnant ewes): 15 to 30 times less potent
- agonistic potency relative to 17β-estradiol [3]: 2%
- excretion [4]: rapidly and completely excreted in urine as the glucosiduronate
- metabolism [4]: virtually no metabolism except for conjugation took place
- relative binding constant compared to 17β-estradiol (100%) ([5]; Tseng et al. 1976): 6.25%
- Relative binding to estrogen receptors, of 17β-estradiol ([5]; Tseng et al. 1978): 1.5%
- average day of disease onset (arthritis) ([6]; oral 0.1 mg/kg): 25.8 days
- average day of disease onset (arthritis) ([6]; oral 0.3 mg/kg): 26.0 days
- increase in disease incidence versus vehicle ([6]; oral 1.0 mg and 3.0 mg/kg groups): clearly delayed
- average day of disease onset (arthritis) ([6]; oral 1.0 mg/kg): 28.2 days
- body weight, % of initial weight (day 21) ([6]; oral 3.0 mg/kg, day 28): 99.3%
- body weight, % of initial weight (day 21) ([6]; oral 3.0 mg/kg, day 35): 96.7%
- body weight, % of initial weight (day 21) ([6]; oral 3.0 mg/kg, day 42): 97.9%
- average day of disease onset (arthritis) ([6]; oral 3.0 mg/kg): 30.7 days
- average cumulative arthritis score ([6]; oral 0.1-3 mg/kg, day 21 to 42): dose-dependently reduced and significantly different as compared to vehicle-treated animals
- development of macroscopical arthritis score ([6]; oral 0.1-3 mg/kg, day 22-42): dose-dependently reduced
- weight loss ([6]; oral, lower three doses (0.1, 0.3 and 1.0 mg/kg)): comparable to the negative and positive control animal groups
- relative binding affinity, of 17β-estradiol (100%) [7]: 0.3%
